From patent publication US20020040018A1, “Subtype selective melatonergics” (priority 2000, published 2002)
Read-outs that look alike come from different tables or passages of the source.

How the values were obtained:
[1] = system: Frings audiogenic seizure-susceptible mice; test: Rotorod test of motor performance (toxicity) in Frings mice; settings: Table 6, i.p., rotorod
Procedure: (§1) All compounds were administered i.p. Varying doses of the compounds were tested. […] For this procedure, mice were tested for their ability to maintain balance on a rotating (6 rpm) knurled Plexiglas rod (1 inch diameter) for one minute. Mice unable to maintain balance in three successive trials during the test period were considered toxic. […] For these studies, the dose of each test substance was varied between the limits of 0 and 100% protection and toxicity. The protective index (PI) is TD50/ED50.

[2] = system: Frings audiogenic seizure susceptible mice; test: Audiogenic seizure susceptibility of Frings mice; type: in vivo; settings: for P.I.: Table 6, TD50/ED50
Procedure: All compounds were administered i.p. Varying doses of the compounds were tested. At the predetermined time of peak anticonvulsant effect, individual mice were placed into a round Plexiglas chamber (diameter, 15 cm; height, 18 cm) pitted with an audio transducer (Model A5-ZC; FET Research & Development, Salt Lake City, Utah) and exposed to a high intensity sound stimulus (110 decibels, 11 KHz) for 25 seconds. Animals not displaying tonic forelimb or hindlimb extension were considered protected. The effect of the test compounds on motor performance was assessed by the rotorod test (Dunham and Miya, 1957). For this procedure, mice were tested for their ability to maintain balance on a rotating (6 rpm) knurled Plexiglas rod (1 inch diameter) for one minute. Mice unable to maintain balance in three successive trials during the test period were considered toxic. The median effective dose (ED50) and the median toxic dose (TD50) was calculated by probit analysis (Finney, 1971). For these studies, the dose of each test substance was varied between the limits of 0 and 100% protection and toxicity. The protective index (PI) is TD50/ED50.

in vivo = settings: Frings, mouse
Procedure: as §1

rat = settings: cited from earlier work
[3] = Sugden's study; cited from earlier work
[4] = Sugden's study; cited from earlier work; remark: listed apart in the source
[5] = Formalin model of persistent pain (Example 11); type: in vivo
Procedure: In this model, two distinct phases of nociceptive activity (paw licking) are observed. […] The second phase is caused by the release of inflammatory factors from tissue damage caused by formalin injection. This phase lasts for 30 to 40 minutes, and is a model of persistent inflammatory pain. The second phase is also predictive of analgesic drugs that will show efficacy in models of chronic and neurophathic pain. [drawing 2]

rodents = settings: 25 μg chronically for 13 weeks; cited from earlier work
[6] = system: children with sleep disturbances; settings: single dose of 5-10 mg; cited from earlier work
MT2 receptor subtype = molecular target: T1, MT2 receptor subtype (Homo sapiens, UniProt P49286); settings: radioligand binding, clones in NIH-3T3 cells; cited from earlier work
T1 construct: host or cells: NIH-3T3 cells
T1 sequence (P49286 1-362): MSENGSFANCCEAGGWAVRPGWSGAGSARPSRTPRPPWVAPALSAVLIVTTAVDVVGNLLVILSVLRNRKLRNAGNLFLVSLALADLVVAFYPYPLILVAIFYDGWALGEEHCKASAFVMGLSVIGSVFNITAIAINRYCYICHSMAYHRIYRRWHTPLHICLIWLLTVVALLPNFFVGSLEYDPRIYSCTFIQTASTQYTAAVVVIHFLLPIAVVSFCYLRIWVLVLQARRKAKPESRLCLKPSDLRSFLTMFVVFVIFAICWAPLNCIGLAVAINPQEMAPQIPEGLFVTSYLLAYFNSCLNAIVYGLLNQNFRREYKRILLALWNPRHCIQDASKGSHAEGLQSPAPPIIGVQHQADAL

mice = test: Elevated platform test for phencyclidine-like behavioral effects; type: in vivo; settings: 44.5 nmol dose, control
Procedure: The in vivo phencyclidine-like behavioral effects of CGX-031-120 is assessed by the elevated platform test as described by Evoniuk et al. (1991). The platform test is a rapid method for evaluating the behavioral effects of phencyclidine-like dissociative anesthetics in mice. […] Alternatively, as a control, a 44.5 nmol dose of MK 801 (dizocilpine) elicited 87.5% drug-induced falls from the elevated platform.

[7] = Table 6, i.p., time of peak effect
[8] = Mus musculus, ip, Table 6, i.p., time of peak effect, read-out: ED50

In the case of `O=C1CN=C(c2ccccc2Cl)c2cc([N+](=O)[O-])ccc2N1` [Klonipin ®, reference compound], the “TD50” value [1] was 0.26 mg/kg, the P.I. [2] was 2.6 and the “ED50” value [2, 7] was 0.10 mg/kg.
With `NC(=O)OCC(COC(N)=O)c1ccccc1` [Felbatol ®, reference compound] the TD50 (in vivo; ip) was 220 mg/kg, the ED50 [2, 8] was 10 mg/kg and the P.I. [2] was 22.
`CCC1(C)CC(=O)NC1=O` (stereo not shown) [Zarontin ®, reference compound] showed a TD50 (in vivo; ip) of 340 mg/kg and a P.I. [2] of 1.04.
In the case of `COc1ccc2[nH]cc(CCNC(C)=O)c2c1` [Melatonin, N-acetyl-5-methoxytryptamine], the anti-nociceptive effect (rat; ip 30, 60, 120 mg/kg) is given as “dose-dependent anti-nociceptive effect”, the “ED50 v 3-MPA” value [3] is given as 115 mg/kg and the “ED50 v ECS” value [4] is given as 159 mg/kg. The “licking time following formalin injection” value ([5]; both phases, 5 doses) was “dose-dependently reduced the licking time”, the “dose at which reduction of licking time reaches significance” value ([5]; phase one) was no less than 100 mg/kg and the “dose at which reduction of licking time reaches significance” value ([5]; phase two) was no less than 200 mg/kg. The TD50 (in vivo; intraperitoneal) was 363 mg/kg, the TD50 (in vivo; ip) was 342 mg/kg and the “number and severity of seizures induced by PTZ” value (rodents) was “reduced the number and severity of seizures”. For the same molecule, the “frequency of epileptic attacks” value [6] was “positive effect”, the ED50 ([2]; Mus musculus, ip) was 82 mg/kg and the ED50 ([2]; audiogenic mouse model, read-out: ED50) was 83 mg/kg.
For `CCCC(=O)NCCc1c2n(c3ccc(OC)cc13)Cc1ccccc1-2` [IIK7, N-butanoyl-2-(2-methoxy-6H-isoindolo-[2,1a]-indol-11-yl)-ethanamine], the “selectivity for the MT2 receptor subtype” value (MT2 receptor subtype) is listed as 140 fold.
For `C[C@]12N[C@H](Cc3ccccc31)c1ccccc12` [MK 801, reference compound], the “drug-induced falls from the elevated platform” value (mice) was 87.5%.
`O=C1NC(=O)C(c2ccccc2)(c2ccccc2)N1` [Dilantin ®, reference compound] showed a TD50 (in vivo; ip) of 41 mg/kg, an ED50 [2, 8] of 3.9 mg/kg and a P.I. [2] of 10.5.
Molecule `CCCC(CCC)C(=O)O` [Depakote ®, reference compound] has an ED50 [2, 8] of 155 mg/kg and a P.I. [2] of 2.6.
In the case of `CC(=O)NCCc1c(Cc2ccccc2)[nH]c2ccccc12` [Luzindole], the “antagonism of melatonin induced anti-nociception” value (rat; i.c.v. (Luzindole 50 & 100 μg)) is given as “antagonized”.
In the case of `NC(=O)N1c2ccccc2C=Cc2ccccc21` [Tegratol ®, reference compound], the “TD50” value [1] was 45.4 mg/kg, the P.I. [2] was 4.1 and the “ED50” value [2, 7] was 11.2 mg/kg.
